The test system of assay [1] is WM1361A and WM1366 PDPK1-depleted clones. The assay is described as follows: Cell growth of PDPK1-depleted (sgRNA knockout) clones in response to MEKi. Conditions: for decrease of the half-maximum inhibitory concentration by PDPK1 depletion: WM1361A and WM1366, 5 days, PDPK1-depleted clones vs parental clone; for cell proliferation, MEKi combined with PDPK1 depletion: WM1361A and WM1366 KO1 and KO2 clones. The assay is classed as cell-based, human. The protocol: (§1) FIGS. 3A-3B: PDPK1 depletion by two individual sgRNAs in WM1361A (FIG. 3A) or WM1366 (FIG. 3B) cells were analyzed by immunoblot. FIGS. 3C-3D, Cell growth of WM1361A (FIG. 3C) or WM1366 (FIG. 3D) parental clones (Cas9) and PDPK1-depleted clones by two individual sgRNAs (KO1 and KO2) treated with vehicle (DMSO) or trametinib (Tram) was monitored by IncuCyte every 2 hours. Media were replaced twice with fresh drugs during culture. Data are represented as the mean±SEM of three biological independent experiments. p values were calculated with an unpaired two-tailed t test. n.s., not significant. FIGS. 3E-3F, Cellular growth in response to trametinib at the indicated doses for 5 days in WM1361A (FIG. 3E) or WM1366 (FIG. 3F) parental clone (iCas9) and PDPK1-depleted clones (KO1 and K02). Media were replaced once with drugs during culture. Data are represented as dots of three biological independent experiments. FIGS. 3G-3J, PDPK1 knockdown by ON-target control siRNAs and two individual siRNAs in SK-MEL-30 (FIG. 3G) or SK-MEL-173 cells (FIG. 3I) was analyzed by immunoblot. Cellular growth in response to trametinib at the indicated doses for 3 days in SK-MEL-30 (FIG. 3H) or SK-MEL-173 (FIG. 3J) control cells (siCtrl) and PDPK1-knockdown cells (siPDPK1s). Data are represented as dots of at least three biological independent experiments.
FIG. 12A-12B: Cell growth of WM1361A (FIG. 12A) or WM1366 (FIG. 12B) parental clone (Cas9) and PDPK1-depleted clones (KO1 and K02) treated with vehicle (DMSO) or PD0325901 (PD) was monitored by IncuCyte every 2 hours. Media were replaced twice with drugs during culture. Data are represented as the mean±SEM of three biological independent experiment. p values were calculated with an unpaired two-tailed t test. n.s., not significant. FIGS. 12C-12D, Cellular growth in response to PD0325901 at the indicated doses for 5 days in WM1361A (FIG. 12C) or WM1366 (FIG. 12D) parental clone (iCas9) and PDPK1-depleted clones (KO1 and K02). Media were replaced once with drugs during culture. Data are represented as dots of three biological independent experiments. FIG. 12E-12F, Cellular growth in response to PD0325901 at the indicated doses for 3 days in SK-MEL-30 (FIG. 12E) or SK-MEL-173 (FIG. 12F) control cells (siCtrl) and PDPK1-knockdown cells (siPDPK1s). Data are represented as dots of at least three biological independent experiments.
To test whether the synergistic effects of GSK2334470 was PDPK1-dependent, the present study generated PDPK1 knockout clones using high gene-editing efficiency clones of WM1361A and WM1366 cells. Depletion of PDPK1 by two different sgRNAs in both cell lines (FIGS. 3A-3B) attenuated cellular proliferation (FIGS. 3C-3D). […]

In assay [2] the test system is human NRAS mutant melanoma cell lines. The assay is described as follows: 72 hours drug combination, cell density by IncuCyte, synergy by Combenefit with Loewe method. The class given is cell-based. The following applies: WM1361A, WM1366, SK-MEL-30 and SK-MEL-173, 72 hours.
Procedure: (§2) FIG. 2A: NRAS mutant melanoma cell line WM1361A, WM1366, SK-MEL-30, SK-MEL-173, 1007 and 1014 were treated for 72 hours as indicated with GSK2334470 and trametinib and analyzed for cell density by IncuCyte. Synergy graphs were generated utilizing Combenefit Software with Loewe method. Data are represented as the mean from three biological independent experiments. FIG. 2B: WM1361A, WM1366, SK-MEL-30 or SK-MEL-173 cells were treated with GSK2334470 (PDPK1i) and trametinib (tram) alone or in combination (comb) at the indicated concentrations for 7 days. Cell growth was monitored by IncuCyte every 2 hours. Media were replaced twice with drugs during culture. Data are represented as the mean±SEM of three biological independent experiments. p values were calculated with an unpaired two-tailed t test. n.s., not significant.
FIG. 10A-10B: Cas9 expressed clone WM1361A-iCas9 #1 (FIG. 10A), and WM1366-iCas9 #11 (FIG. 10B) cells were treated for 72 hours as indicated with GSK2334470 and trametinib and analyzed for cell density by IncuCyte. Synergy graphs were generated utilizing Combenefit Software with Loewe method. Data are represented as the mean from three biological independent experiments.
FIG. 11A: WM1361A, WM1366, SK-MEL-30 and SK-MEL-173 cells were treated for 72 hours as indicated with GSK2334470 and PD0325901 and analyzed for cell density by IncuCyte. Synergy graphs were generated utilizing Combenefit Software with Loewe method. Data are represented as the mean from three biological independent experiments. FIG. 11B: WM1361A, WM1366, SK-MEL-30 or SK-MEL-173 cells were treated with GSK2334470 (PDPK1i) and PD0325901 (PD901) alone or in combination (Comb) at the indicated concentrations for 7 days. Cell growth was monitored by IncuCyte every 2 hours. Data are represented as the mean±SEM of three biological independent experiments. p values were calculated with an unpaired two-tailed t test. n.s., not significant.
FIG. 16A: WM1361A and WM1366 cells were treated for 72 hours with indicated inhibitors and analyzed for cell density by IncuCyte. Synergy graphs were generated utilizing Combenefit Software with Loewe method. Data are represented as the mean from three biological independent experiments.
To further analyze synergistic effects, the growth response of a panel of several NRAS mutant cells to titrated PDPK1i (GSK2334470) and MEKi (trametinib) combinations was assessed.
Human WM1361A and WM1366 melanoma cell lines were cultured in MCDB153 (Sigma) with 2% FBS, 20% Leibowitz L-15 medium, and 5 μg/mL insulin (WM medium). Human SK-MEL-30 and SK-MEL-173 melanoma cell lines were cultured in RPMI-1640 with 10% FBS. […] All cells were cultured at 37° C. in a humidified atmosphere containing 5% CO2. […] Cell lines were STR analyzed, confirmed for NRAS/Nras mutation, and tested to be mycoplasma-free during experiments. For cell proliferation and drug response, cells were monitored by IncuCyte® (Essen Bioscience, Ann Arbor, MI) every 2 hours.
For assay [3], the system named is SK-MEL-30 and SK-MEL-173 PDPK1-knockdown cells. Briefly: Cellular growth of siRNA PDPK1-knockdown cells in response to MEKi. Conditions: SK-MEL-30 and SK-MEL-173, 3 days, siPDPK1 vs siCtrl. The assay is classed as cell-based, human. On the procedure: as §1, with “Data are represented as dots of three biological independent experiments.” left out, “Cellular growth in response to trametinib at the indicated doses for 3 days in SK-MEL-30 (FIG. 3H) or SK-MEL-173 (FIG. 3J) control cells (siCtrl) and PDPK1-knockdown cells (siPDPK1s). Data are represented as dots of at least three biological independent experiments.” left out
FIG. 12A-12B: Cell growth of WM1361A (FIG. 12A) or WM1366 (FIG. 12B) parental clone (Cas9) and PDPK1-depleted clones (KO1 and K02) treated with vehicle (DMSO) or PD0325901 (PD) was monitored by IncuCyte every 2 hours. […] Data are represented as the mean±SEM of three biological independent experiment. p values were calculated with an unpaired two-tailed t test. n.s., not significant. […]

Assay [4] deals with WM1361A, WM1366, SK-MEL-30 or SK-MEL-173 cells. The assay is described as follows: 7-day cell growth monitored by IncuCyte. Conditions: 7-day treatment course. The assay is classed as cell-based, human.
Procedure: as §2
FIG. 11A: WM1361A, WM1366, SK-MEL-30 and SK-MEL-173 cells were treated for 72 hours as indicated with GSK2334470 and PD0325901 and analyzed for cell density by IncuCyte. […] Cell growth was monitored by IncuCyte every 2 hours. Data are represented as the mean±SEM of three biological independent experiments. p values were calculated with an unpaired two-tailed t test. n.s., not significant.
For cell proliferation and drug response, cells were monitored by IncuCyte® (Essen Bioscience, Ann Arbor, MI) every 2 hours.
In assay [5] the test system is Nras Q61K mouse melanoma isografts of 1014 cells. Briefly: 1014 allograft model in immunocompetent B6 mice. The class given is in vivo. The following applies: trametinib chow and/or GSK2334470 injection three times per week.

As to `O=C(NOC[C@H](O)CO)c1ccc(F)c(F)c1Nc1ccc(I)cc1F` [PD0325901, (R)—N-(2,3-dihydroxypropoxy)-3,4-difluoro-2-((2-fluoro-4-iodophenyl)amino)benzamide], in assay [1], the “decrease of the half-maximum inhibitory concentration by PDPK1 depletion” value was “approximately 4 fold” and the “cell proliferation, MEKi combined with PDPK1 depletion” value is reported as “effectively inhibited”. In assay [2], the “synergistic inhibition of PDPK1i (GSK2334470) with PD0325901” value is listed as “broad synergistic effects”. Besides, the “half-maximum inhibitory concentration upon PDPK1 knockdown” value in assay [3] is given as “decreased”. Further, the “cell proliferation, MEKi combined with PDPK1i (GSK2334470)” value in assay [4] is recorded as “profoundly inhibited”.

Consider `CC(=O)Nc1cccc(-n2c(=O)n(C3CC3)c(=O)c3c(Nc4ccc(I)cc4F)n(C)c(=O)c(C)c32)c1` [trametinib, N-(3-(3-cyclopropyl-5-((2-fluoro-4-iodophenyl)amino)-6,8-dimethyl-2,4,7-trioxo-3,4,6,7-tetrahydropyrido[4,3-d]pyrimidin-1(2H)-yl)phenyl)acetamide], for which, in assay [5], the tumor growth entry is reported as “modest delay of tumor growth”. In addition, in assay [1], the “decrease of the half-maximum inhibitory concentration by PDPK1 depletion” value is given as “approximately 4 fold” and the “cell proliferation, MEKi combined with PDPK1 depletion” value is “effectively inhibited”. Besides, the “half-maximum inhibitory concentration upon PDPK1 knockdown” value in assay [3] was “decreased”. In assay [4], the “cell proliferation, MEKi combined with PDPK1i (GSK2334470)” value was “profoundly inhibited”.
